Measurements as given in US8557833B2, “Aminopyrimidines useful as kinase inhibitors” (priority 2005, dated 2013).
Like-named read-outs stand apart in the source and are kept apart here.

Assays:
JAK-2 = JAK-2 (Homo sapiens, UniProt O60674); assay: JAK2 inhibition assay; assay type: biochemical; settings: 12 μM ATP, 15 μM poly(Glu)4Tyr
FLT-3 = target: T1, FLT-3 (Homo sapiens, UniProt P36888); assay: FLT-3 inhibition assay, radiometric filter-binding; assay type: biochemical
T1 sequence (P36888 27-993): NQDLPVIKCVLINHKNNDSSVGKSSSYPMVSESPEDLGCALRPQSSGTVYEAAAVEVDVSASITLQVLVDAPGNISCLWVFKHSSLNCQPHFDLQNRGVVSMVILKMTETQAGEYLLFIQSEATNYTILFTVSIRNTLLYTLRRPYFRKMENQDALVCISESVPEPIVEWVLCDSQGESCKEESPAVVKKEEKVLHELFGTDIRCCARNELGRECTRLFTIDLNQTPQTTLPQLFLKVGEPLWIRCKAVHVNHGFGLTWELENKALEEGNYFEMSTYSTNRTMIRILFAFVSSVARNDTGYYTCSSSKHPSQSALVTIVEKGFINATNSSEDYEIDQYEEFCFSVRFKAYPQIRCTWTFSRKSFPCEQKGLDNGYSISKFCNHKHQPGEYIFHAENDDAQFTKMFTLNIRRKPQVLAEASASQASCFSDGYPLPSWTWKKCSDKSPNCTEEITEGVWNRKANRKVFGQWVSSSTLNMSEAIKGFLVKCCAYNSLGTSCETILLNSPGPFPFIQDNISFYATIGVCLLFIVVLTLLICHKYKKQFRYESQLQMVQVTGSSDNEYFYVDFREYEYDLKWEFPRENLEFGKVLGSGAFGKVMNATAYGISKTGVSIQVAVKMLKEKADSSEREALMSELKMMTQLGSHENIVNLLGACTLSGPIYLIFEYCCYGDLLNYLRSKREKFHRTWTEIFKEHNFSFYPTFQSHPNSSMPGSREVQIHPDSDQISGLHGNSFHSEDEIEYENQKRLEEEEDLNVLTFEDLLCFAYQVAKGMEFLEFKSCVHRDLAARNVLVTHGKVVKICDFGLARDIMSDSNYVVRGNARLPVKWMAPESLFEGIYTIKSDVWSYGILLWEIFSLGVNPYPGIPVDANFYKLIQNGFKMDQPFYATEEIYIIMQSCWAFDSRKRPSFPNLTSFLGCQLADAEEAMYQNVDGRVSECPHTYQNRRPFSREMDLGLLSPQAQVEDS
Method: This assay monitors the 33P incorporation into a substrate poly(Glu, Tyr) 4:1 (pE4Y). […] Final substrate concentrations in the assay were 90 μM ATP and 0.5 mg/ml pE4Y (both from Sigma Chemicals, St Louis, Mo.). […] Reactions were carried out at room temperature.
Two assay solutions were prepared. Solution 1 contains 100 mM HEPES (pH 7.5), 10 mM MgCl2, 25 mM NaCl, 1 mg/ml pE4Y and […] (containing 0.3 mCi of [γ-33^P]ATP for each reaction). Solution 2 contains 100 mM HEPES (pH 7.5), 10 mM MgCl2, 25 mM NaCl, 2 mM DTT, 0.02% BSA and 3 nM FLT-3. The assay was run on a 96 well plate by mixing 50 μl each of Solution 1 and […] of the compounds of the present invention. The reaction was initiated with Solution 2. […] All of the reaction volume was then transferred to a filter plate and washed with 5% TCA by a Harvester 9600 from TOMTEC (Hamden, Conn.). The amount of ^33P incorporation into pE4y was analyzed by a Packard Top Count Microplate Scintillation Counter (Meriden, Conn.). The data was fitted using Prism software to get an IC50 or Ki.

Aurora-1 (Aurora B) = Aurora-1 (Aurora B) (Homo sapiens, UniProt Q96GD4); assay: Aurora-1 (Aurora B) inhibition assay (radiometric); assay type: biochemical
Sequence of Aurora-1 (Aurora B) (Q96GD4 whole entry): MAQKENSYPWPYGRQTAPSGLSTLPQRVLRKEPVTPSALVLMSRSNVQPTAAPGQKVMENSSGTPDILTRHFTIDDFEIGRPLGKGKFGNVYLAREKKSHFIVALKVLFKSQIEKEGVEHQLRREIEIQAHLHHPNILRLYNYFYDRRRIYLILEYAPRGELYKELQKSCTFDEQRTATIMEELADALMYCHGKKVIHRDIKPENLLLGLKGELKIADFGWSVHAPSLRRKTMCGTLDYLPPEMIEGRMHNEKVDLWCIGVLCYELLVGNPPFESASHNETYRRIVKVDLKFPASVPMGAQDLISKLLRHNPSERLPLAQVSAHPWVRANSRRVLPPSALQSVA
Method: An assay buffer solution was prepared which consisted of 25 mM HEPES (pH 7.5), 10 mM MgCl2, 0.1% BSA and 10% glycerol. […] To 22 μL of the Aurora-B solution, in a 96-well plate, was added 2 μl of a compound stock solution in DMSO and the mixture allowed to equilibrate for 10 minutes at 25° C. The enzyme reaction was initiated by the addition of 16 μl stock [γ-^33P]-ATP solution (˜20 nCi/μL) prepared in assay buffer, to a final assay concentration of 800 μM. The reaction was stopped after 3 hours by the addition of 16 μL 500 mM phosphoric acid and the levels of ^33P incorporation into the peptide substrate were determined by the following method.
A phosphocellulose 96-well plate (Millipore, Cat no. MAPHNOB50) was pre-treated with 100 μL of a 100 mM phosphoric acid prior to the addition of the enzyme reaction mixture (40 μL). The solution was left to soak on to the phosphocellulose membrane for 30 minutes and the plate subsequently washed four times with 200 μL of a 100 mM phosphoric acid. […] Levels of non-enzyme catalyzed background radioactivity were determined by adding 16 μL of the 500 mM phosphoric acid to control wells, containing all assay components (which acts to denature the enzyme), prior to the addition of the [γ-^33P]-ATP solution. Levels of enzyme catalyzed ^33P incorporation were calculated by subtracting mean background counts from those measured at each inhibitor concentration. […] Ki values were calculated from initial rate data by non-linear regression using the Prism software package (Prism 3.0, Graphpad Software, San Diego, Calif.).

[1] = target: N-terminally truncated Abl kinase; assay: Abl kinase activity inhibition assay, coupled enzyme; assay type: biochemical; settings: read-out: Abl (wild) Ki; 110 μM ATP, 30° C., 21 nM Abl kinase
Sequence of N-terminally truncated Abl kinase (P00519 28-1130): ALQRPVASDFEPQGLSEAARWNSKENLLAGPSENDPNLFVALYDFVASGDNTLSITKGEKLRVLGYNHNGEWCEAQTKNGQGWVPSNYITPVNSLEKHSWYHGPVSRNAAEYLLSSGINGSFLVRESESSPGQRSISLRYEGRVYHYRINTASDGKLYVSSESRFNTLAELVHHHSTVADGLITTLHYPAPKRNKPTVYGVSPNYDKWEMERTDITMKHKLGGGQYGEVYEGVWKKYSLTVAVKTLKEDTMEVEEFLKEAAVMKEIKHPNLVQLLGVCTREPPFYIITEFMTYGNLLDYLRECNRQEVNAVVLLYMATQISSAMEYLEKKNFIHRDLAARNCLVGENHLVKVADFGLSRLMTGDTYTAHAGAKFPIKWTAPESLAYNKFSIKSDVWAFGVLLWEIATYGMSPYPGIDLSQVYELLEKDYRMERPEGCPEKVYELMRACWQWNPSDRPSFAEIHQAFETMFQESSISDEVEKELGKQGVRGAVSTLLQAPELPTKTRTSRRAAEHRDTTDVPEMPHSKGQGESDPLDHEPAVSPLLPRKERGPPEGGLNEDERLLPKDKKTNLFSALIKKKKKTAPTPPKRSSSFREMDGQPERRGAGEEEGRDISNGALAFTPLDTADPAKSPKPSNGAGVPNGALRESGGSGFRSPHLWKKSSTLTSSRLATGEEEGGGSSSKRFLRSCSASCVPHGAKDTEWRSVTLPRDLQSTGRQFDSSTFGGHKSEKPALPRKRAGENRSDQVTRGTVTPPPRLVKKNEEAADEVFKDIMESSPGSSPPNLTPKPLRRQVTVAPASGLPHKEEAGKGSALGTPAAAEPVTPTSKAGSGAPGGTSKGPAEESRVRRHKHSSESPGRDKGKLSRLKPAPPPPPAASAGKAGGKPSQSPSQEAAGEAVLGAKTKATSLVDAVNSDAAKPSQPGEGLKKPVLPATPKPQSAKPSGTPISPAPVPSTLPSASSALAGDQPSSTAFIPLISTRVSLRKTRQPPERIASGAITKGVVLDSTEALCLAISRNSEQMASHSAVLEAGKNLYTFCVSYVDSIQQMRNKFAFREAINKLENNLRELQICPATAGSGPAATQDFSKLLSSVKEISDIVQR
Method: Final concentrations of the components of the coupled enzyme system were 2.5 mM phosphoenolpyruvate, 200 μM NADH, […] pyruvate kinase and 20 μg/ml lactate dehydrogenase.
An assay stock buffer solution was prepared containing all of the reagents listed above with the exception of ATP and the test compound of interest. […] Rates of reaction were obtained using a Molecular Devices Spectramax plate reader (Sunnyvale, Calif.) over 10 min at 30° C. The Ki values were determined from the residual rate data as a function of inhibitor concentration using nonlinear regression (Prism 3.0, Graphpad Software, San Diego, Calif.).

[2] = Microsomal stability assay; assay type: in vitro ADME; settings: 5 μM compound, 1 mg/mL liver microsome protein, 37° C., species not given
Method: Microsomal stability was monitored by generation of depletion-time profiles in microsomes from a range of species (male CD-1 mouse, male Sprague-Dawley rat, male Beagle dog, male Cynomolgus monkey and pooled mixed gender human). Compound spiking solutions were made up by diluting down the compound stock solution in DMSO (typically 10 mM) to give a solution in acetonitrile (0.5 mM). […].
The reaction was initiated by the addition (250 μL) of the pre-incubated RGS to the pre-incubated microsome/VRT/PB mixture (pre-incubation in both instances was for 10 minutes at 37° C.). Samples were incubated within Eppendorf vials (1.5 ml) on a heater shaker (DPC Micromix 5 (settings; form 20, amplitude 4) modified to be heated, to 37° C., by two plate heaters fixed to the deck and controlled by a Packard Manual Heater) attached to a Multiprobe II HT Ex automated liquid handler. The liquid handler was programmed (WinPREP software) to sample the microsomal incubation mixture after 0, 2, 10, 30 and 60 minutes of incubation and transfer an aliquot (100 μL) to a stop block (96-well block) containing 100 μL of chilled methanol. The % organic in the stop mixture was optimized for analysis by addition of appropriate volumes of aqueous/organic (typically 100 μl of 50:50 methanol:water).
Prior to analysis the stop block was placed on a shaker (DPC Micromix 5; 10 min, form 20, amplitude 5) to precipitate out proteins. The block was then centrifuged (Jouan GR412; 2000 rpm, 15 min, 4° C.). A sample aliquot (200 μL) was then transferred to an analysis block and the block was centrifuged again (Jouan GR412; 2000 rpm, 5 min, 4° C.) prior to being sent for analysis. Depletion profiles were determined by monitoring the disappearance of VRT by liquid chromatography-tandem mass spectrometry (LC-MS/MS). Samples were injected (20 μL; Agilent 1100 liquid chromatographic system equipped with autosampler) onto an analytical column. Mobile phase consisted of Water+0.05% (v/v) formic acid (A) and methanol+0.05% (v/v) formic acid (B).
Running a gradient method optimized for the compound of interest carried out the compound elution from analytical column. The total run time was 6 minutes with a flow rate of 0.35 mL/min. The entire column effluent entered the electrospray ionization source (positive mode) of a Micromass Quattro LC tandem mass spectrometer between 0.5 and 5.9 min of the run. The mass spectrometry was optimized for the compound of interest. All incubations were conducted in duplicate and results were expressed as % parent remaining at either 30 minutes or 60 minutes relative to 0 minutes sample.

Aurora-2 (Aurora A) = target: T2, Aurora-2 (Aurora A) (Homo sapiens, UniProt O14965); assay: Aurora-2 (Aurora A) inhibition assay, coupled enzyme; assay type: biochemical
T2 sequence (O14965 1-403): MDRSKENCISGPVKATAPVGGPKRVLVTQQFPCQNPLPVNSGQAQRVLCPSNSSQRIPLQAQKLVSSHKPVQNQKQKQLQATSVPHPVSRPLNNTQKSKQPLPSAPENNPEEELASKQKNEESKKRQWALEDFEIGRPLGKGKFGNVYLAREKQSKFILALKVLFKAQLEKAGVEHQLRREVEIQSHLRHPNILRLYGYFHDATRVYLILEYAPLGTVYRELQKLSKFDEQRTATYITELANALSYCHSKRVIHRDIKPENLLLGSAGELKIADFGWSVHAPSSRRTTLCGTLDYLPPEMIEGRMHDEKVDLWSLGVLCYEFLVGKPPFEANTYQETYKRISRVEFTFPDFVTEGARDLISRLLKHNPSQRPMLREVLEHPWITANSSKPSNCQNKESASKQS
Method: Assays were carried out in a mixture of 100 mM Hepes (pH7.5), 10 mM MgCl2, 1 mM DTT, 25 mM NaCl, 2.5 mM phosphoenolpyruvate, 300 μM NADH, 30 μg/ml pyruvate kinase and 10 μg/ml lactate dehydrogenase. […] Assays were carried out at 30° C. and in the presence of 40 nM Aurora-2.
An assay stock buffer solution was prepared containing all of the reagents listed above, with the exception of Aurora-2 and the test compound of interest. […] The plate was preincubated for 10 minutes at 30° C. and the reaction initiated by addition of 10 μl of Aurora-2. Initial reaction rates were determined with a Molecular Devices SpectraMax Plus plate reader over a 10 minute time course. IC50 and Ki data were calculated from non-linear regression analysis using the Prism software package (GraphPad Prism version 3.0cx for Macintosh, GraphPad Software, San Diego Calif., USA).

[3] = 800 μM ATP, Kemptide, 25° C., read-out: Aurora B Ki
[4] = 400 μM ATP, 570 μM Kemptide, 30° C., 40 nM Aurora-2, read-out: Aurora A Ki

Sequence of JAK-2 (O60674 whole entry, species assumed): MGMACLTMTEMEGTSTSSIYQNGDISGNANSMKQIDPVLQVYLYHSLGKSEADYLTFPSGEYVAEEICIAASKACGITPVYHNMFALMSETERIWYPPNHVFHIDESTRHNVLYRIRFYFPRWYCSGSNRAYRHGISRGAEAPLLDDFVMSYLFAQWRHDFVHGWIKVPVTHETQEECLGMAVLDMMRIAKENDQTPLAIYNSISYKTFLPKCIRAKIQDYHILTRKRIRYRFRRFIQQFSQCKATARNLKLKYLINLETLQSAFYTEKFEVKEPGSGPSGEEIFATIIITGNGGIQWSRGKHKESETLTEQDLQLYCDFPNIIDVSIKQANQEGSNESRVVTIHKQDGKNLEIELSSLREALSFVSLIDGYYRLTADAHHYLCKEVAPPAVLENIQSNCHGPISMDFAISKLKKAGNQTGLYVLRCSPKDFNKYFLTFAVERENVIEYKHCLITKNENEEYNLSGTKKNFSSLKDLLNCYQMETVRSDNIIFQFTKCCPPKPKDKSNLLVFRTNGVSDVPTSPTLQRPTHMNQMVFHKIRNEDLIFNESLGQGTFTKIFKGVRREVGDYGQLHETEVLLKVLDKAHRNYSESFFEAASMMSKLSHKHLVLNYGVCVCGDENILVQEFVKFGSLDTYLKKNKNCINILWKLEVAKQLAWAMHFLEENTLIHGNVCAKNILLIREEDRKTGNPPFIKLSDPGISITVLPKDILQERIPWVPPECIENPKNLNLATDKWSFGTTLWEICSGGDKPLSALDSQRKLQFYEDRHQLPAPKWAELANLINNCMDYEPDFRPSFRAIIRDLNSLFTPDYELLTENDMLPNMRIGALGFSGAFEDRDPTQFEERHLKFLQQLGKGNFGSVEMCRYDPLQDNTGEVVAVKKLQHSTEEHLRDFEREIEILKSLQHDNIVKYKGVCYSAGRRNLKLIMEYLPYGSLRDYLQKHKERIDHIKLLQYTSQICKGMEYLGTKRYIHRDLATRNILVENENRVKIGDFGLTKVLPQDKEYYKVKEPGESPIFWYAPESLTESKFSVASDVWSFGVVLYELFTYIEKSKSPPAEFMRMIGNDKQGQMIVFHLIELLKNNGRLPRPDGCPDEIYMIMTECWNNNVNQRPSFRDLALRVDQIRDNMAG

Row | Compound | Ki (JAK-2) | Ki (FLT-3; 90 μM ATP, 0.5 mg/ml pE4Y, room temperature, read-out: FLT-3 Ki) | Ki (Aurora-1 (Aurora B); [3]) | Ki [1] | Microsomal Stability (% remaining after 30 min.) [2] | Microsomal Stability (% remaining after 60 min.) [2] | Ki (Aurora-2 (Aurora A)) | Ki (Aurora-1 (Aurora B)) | Ki (Aurora-2 (Aurora A); [4]) | Ki (FLT-3)
1 | Cc1cc(Nc2cc(N3CCC3)nc(Sc3ccc(NC(=O)c4cccc(Cl)c4Cl)cc3)n2)n[nH]1 [Compound I-9] | – | – | – | – | – | 69% | 0.85 nM | 6.5 nM | – | –
2 | Cc1cc(Nc2cc(N3CCC3)nc(Sc3ccc(NC(=O)c4cc(F)ccc4F)cc3)n2)[nH]n1 [Compound I-10] | – | – | < 25 nM | – | – | – | – | – | 1.8 nM | –
3 | CSc1ccccc1C(=O)Nc1ccc(Sc2nc(Nc3cc(C)[nH]n3)cc(N3CCC3)n2)cc1 [Compound I-23] | – | – | 6 nM | – | – | – | 1.4 nM | – | – | –
4 | Cc1cc(Nc2cc(N3CCC3)nc(Sc3ccc(NC(=O)c4ccccc4Cl)nc3)n2)[nH]n1 [Compound I-24] | 660 nM | – | 18 nM | – | – | – | – | – | 1 nM | 700 nM

Next, values leading:

Row | Ki (JAK-2) | Ki (FLT-3; 90 μM ATP, 0.5 mg/ml pE4Y, room temperature, read-out: FLT-3 Ki) | Ki (Aurora-1 (Aurora B); [3]) | Ki [1] | Microsomal Stability (% remaining after 30 min.) [2] | Microsomal Stability (% remaining after 60 min.) [2] | Ki (Aurora-2 (Aurora A)) | Ki (Aurora-1 (Aurora B)) | Ki (Aurora-2 (Aurora A); [4]) | Ki (FLT-3) | Compound
5 | 41 nM | 250 nM | 5.1 nM | 35 nM | 102% | 69% | – | – | – | – | Cc1cc(Nc2cc(N3CCC3)nc(Sc3ccc(NC(=O)c4cccc(F)c4F)cc3)n2)[nH]n1 [Compound I-7]
6 | 440 nM | – | – | – | 91% | 63% | 0.56 nM | 7.5 nM | – | – | CCc1cc(Nc2cc(N3CCC3)nc(Sc3ccc(NC(=O)c4ccccc4Cl)cc3)n2)n[nH]1 [Compound I-16]
7 | 63 nM | – | 8 nM | – | 89% | 58% | – | – | 0.6 nM | – | COc1cccc(C(=O)Nc2ccc(Sc3nc(Nc4cc(C)n[nH]4)cc(N4CCC4)n3)cc2)c1 [Compound I-18]
